From patent publication US5501976A, “Methods and compositions for the control of the flesh fly” (The University of Florida, priority 1995, dated 1996)
Where “and” joins values, the source holds several entries; their conditions need not be identical. Equal values may be shown once. Read-outs that look alike come from different tables or passages of the source. Where no end group is shown, it is not given here.

How the values were obtained:
ecdysteroid titer = test: In vivo ecdysteroid titer in larvae; conditions: ten picomole per larva, within 18 hours
[1] = system: ecdysone biosynthesis by ring glands; test: In vitro ecdysone biosynthesis by larval ring glands; assay type: cell-based, Calliphora and Neobellieria
[2] = system: trypsin biosynthesis in the midgut of female Neobellieria bullata; test: Effect of injected peptide on trypsin biosynthesis in the gut ([3H]DFP assay); assay type: in vivo
trypsin-like enzymes = test: Gut supernatant incubated with Neb-TMOF: conversion of [3H]DFP to [3H]DIP-trypsin derivatives; assay type: biochemical, Neobellieria; conditions: gut supernatant incubated 18 hours at 4° C. with Neb-TMOF (FIG. 6)
[3] = system: vitellogenin biosynthesis; test: Vitellogenin in hemolymph of injected females (SDS-PAGE); assay type: in vivo, Neobellieria
Experimental: Electrophoresis and fluorography. ^3 H!DIP-trypsin-like derivatives of 0.04 gut equivalent and 20 μl sample buffer were run by electrophoresis on 12.5% polyacrylamide gel for 1 hour at 20 mA and for 3 hours at 30 mA (Biorad protean 32 CM) (Laemmli, 1970; Borovsky and Schlein, 1988). Gels were stained for 20 minutes with Coomassie Brilliant Blue R250 and destained overnight with methanol/H2 O/acetic acid (40/50/10), and washed 2 times for 30 minutes in 100 ml dimethylsulfoxide (DMSO). Gels were then incubated for 2 h in 200 ml DMSO containing 44 g 2,5-diphenyloxazole (PPO) (Janssen Chimica, Belgium), rinsed with distilled water for 1 hour, dried for 2 hours in a Biorad slab gel dryer at 80° C. and exposed to a Hyperfilm-MP (Amersham) for 2 days at -70° C. Vitellogenin was separated on a 5-15% SDS gradient gel (Huybrechts and De Loof 1977).
Four-day-old females were injected with synthetic Neb-TMOF at final concentration of 10^-9 M. Twenty-four hours later, hemolymph was collected and subjected to PAGE. […] The three yolk polypeptides of vitellogenin were affected (FIG. 7). The decrease in vitellogenin in the hemolymph is probably due to the inhibition of trypsin biosynthesis and decrease in protein digestion in the gut. The Neb-TMOF can also affect the fat body, which is the major site of yolk polypeptide biosynthesis in Neobellieria.

## NPTNLH [Neb-TMOF, NH2 -Asn-Pro-Thr-Asn-Leu-His-COOH]
Ecdysteroid titer
  reduction of ecdysteroid titer in vivo: up to a factor of four
[1]
  PTIH effect, onset and reversibility: immediate and reversible
[1]; 10^-7 M
  ecdysone biosynthesis inhibited: More than 98%
[1]; ring glands of Neobellieria and Calliphora, read-out: EC50 of the biosynthesis of ecdysone by ring glands
  EC50: 5 nM
[1]; ring glands of larvae of Calliphora and Neobellieria, read-out: EC50 of in vitro ecdysone biosynthesis by ring glands
  EC50: 5 nM
[2]; 10^-8 M, injected 4-day-old females
  inhibition of trypsin biosynthesis: 35%
[2]; 10^-9 M injected, liver meal, guts removed 6 h later (FIG. 6)
  reduction in trypsin-like enzymes as compared with controls: 51%
[2]; 10^-9 M, injected females
  inhibition of trypsin biosynthesis: 60% and 50%
[2]; 10^-11 M
  inhibition of trypsin biosynthesis: No inhibition
[2]; column purification step 1, 1.25 ovary equivalents, P<0.05
  inhibition of trypsin biosynthesis: 44%
[2]; column purification step 2, 3.7 ovary equivalents, P<0.05
  inhibition of trypsin biosynthesis: 38%
[2]; column purification step 3, 10 ovary equivalents, P<0.05
  inhibition of trypsin biosynthesis: 43%
[2]; column purification step 4, 10 ovary equivalents, P<0.05
  inhibition of trypsin biosynthesis: 44%
[2]; column purification step 5, 38.5 ovary equivalents, P<0.05
  inhibition of trypsin biosynthesis: 20%
[2]; in vivo, 10^-8 M and 10^-9 M, P<0.05
  inhibition of trypsin biosynthesis in the gut, significance (FIG. 5): Significant inhibition
[2]; physiological concentrations
  effective dose of 50% inhibition (ED50) of trypsin biosynthesis: 10^-9 M
[2]; versus mosquito TMOF
  activity in Neobellieria relative to mosquito TMOF: six fold more active
trypsin-like enzymes
  reduction in [3H]DIP-trypsin derivatives compared with controls: No reduction
[3]; 10^-9 M injected, 24 hours later, PAGE
  vitellogenin level in hemolymph compared with non-injected controls: low level of vitellogenin
[3]; injection of the hormone
  egg yolk synthesis after injection: inhibited egg yolk synthesis

## CSCC[C@H](NC(=O)[C@H](Cc1ccccc1)NC(=O)CNC(=O)CNC(=O)[C@@H](N)Cc1ccc(O)cc1)C(=O)O [methionine-enkephalin, H-YGGFM-OH, reference compound]
[2]; injected with 10^-7 M, control group
  effect on trypsin-like activity: without an effect
